From ChEMBL document CHEMBL4390687, “Dispiropyrrolidinyl-piperidone embedded indeno[1,2-b]quinoxaline heterocyclic hybrids: Synthesis, cholinesterase inhibitory activity and their molecular docking simulation” (Bioorg Med Chem, 2019)

Assays:
Cholinesterase = Cholinesterase (Equus caballus, UniProt P81908); assay: Inhibition of equine serum BChE using butyrylthiocholine chloride as substrate preincubated for 15 mins followed by substrate addition and measured after 30 mins by Ellman's method
Acetylcholinesterase = Acetylcholinesterase (Electrophorus electricus, UniProt O42275); assay: Inhibition of electric eel AChE using acetylthiocholine iodide as substrate preincubated for 15 mins followed by substrate addition and measured after 30 mins by Ellman's method
[1] = Selectivity index, ratio of IC50 for equine serum BChE to IC50 for electric eel AChE
[2] = Selectivity index, ratio of IC50 for electric eel AChE to IC50 for equine serum BChE

Acetylcholinesterase, sequence (O42275 whole entry): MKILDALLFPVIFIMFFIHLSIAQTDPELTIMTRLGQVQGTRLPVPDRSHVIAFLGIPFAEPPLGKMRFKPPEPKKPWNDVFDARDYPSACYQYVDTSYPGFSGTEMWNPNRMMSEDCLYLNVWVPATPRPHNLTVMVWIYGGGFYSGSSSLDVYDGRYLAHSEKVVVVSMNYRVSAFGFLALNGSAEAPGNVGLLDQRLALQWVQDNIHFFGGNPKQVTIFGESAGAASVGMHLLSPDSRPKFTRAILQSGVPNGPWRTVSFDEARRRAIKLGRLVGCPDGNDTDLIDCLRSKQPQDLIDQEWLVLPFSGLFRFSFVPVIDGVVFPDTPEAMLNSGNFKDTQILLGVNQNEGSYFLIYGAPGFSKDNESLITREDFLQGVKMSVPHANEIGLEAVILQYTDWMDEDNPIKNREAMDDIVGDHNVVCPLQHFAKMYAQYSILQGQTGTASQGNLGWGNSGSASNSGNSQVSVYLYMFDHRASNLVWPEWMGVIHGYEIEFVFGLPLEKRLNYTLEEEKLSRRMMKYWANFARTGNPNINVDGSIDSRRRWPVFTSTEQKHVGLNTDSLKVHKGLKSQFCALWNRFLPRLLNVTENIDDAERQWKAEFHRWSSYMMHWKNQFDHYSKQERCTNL
Cholinesterase, sequence (P81908 whole entry): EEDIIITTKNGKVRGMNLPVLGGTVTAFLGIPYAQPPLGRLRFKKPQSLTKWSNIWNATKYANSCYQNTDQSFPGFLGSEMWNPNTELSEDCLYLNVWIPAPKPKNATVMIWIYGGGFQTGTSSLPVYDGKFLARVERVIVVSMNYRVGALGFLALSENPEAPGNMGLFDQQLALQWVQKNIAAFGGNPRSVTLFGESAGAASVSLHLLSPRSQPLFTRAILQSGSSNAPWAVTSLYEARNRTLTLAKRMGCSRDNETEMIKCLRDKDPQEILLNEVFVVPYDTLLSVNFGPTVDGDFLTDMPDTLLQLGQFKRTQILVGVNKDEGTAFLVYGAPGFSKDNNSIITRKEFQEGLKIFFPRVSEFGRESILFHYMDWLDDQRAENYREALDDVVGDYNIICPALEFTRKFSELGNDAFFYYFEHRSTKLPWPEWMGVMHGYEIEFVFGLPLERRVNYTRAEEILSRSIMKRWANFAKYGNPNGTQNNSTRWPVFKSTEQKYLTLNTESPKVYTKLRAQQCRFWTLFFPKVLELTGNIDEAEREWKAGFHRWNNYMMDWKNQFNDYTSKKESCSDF

Row | Structure (SMILES) | IC50 (Cholinesterase) | IC50 (Acetylcholinesterase) | Ratio IC50 [1] | Ratio IC50 [2]
1 | O=C1/C(=C/c2cccc([N+](=O)[O-])c2)CNCC12C(c1cccc([N+](=O)[O-])c1)C(Cc1c[nH]c3ccccc13)NC21c2ccccc2C2N=c3ccccc3=NC21 (stereo not given) | 10.5 µM | 2.01 µM | 5.2 | 0.19
2 | O=C1/C(=C/c2ccc(Cl)cc2Cl)CNCC12C(c1ccc(Cl)cc1Cl)C(Cc1c[nH]c3ccccc13)NC21c2ccccc2C2N=c3ccccc3=NC21 (stereo not given) | 17.6 µM | 10.2 µM | 1.73 | 0.58
3 | O=C1/C(=C/c2ccccc2Cl)CNCC12C(c1ccccc1Cl)C(Cc1c[nH]c3ccccc13)NC21c2ccccc2C2N=c3ccccc3=NC21 (stereo not given) | 26.7 µM | 16.4 µM | 1.63 | 0.62
4 | O=C1/C(=C/c2ccc(Br)cc2)CNCC12C(c1ccc(Br)cc1)C(Cc1c[nH]c3ccccc13)NC21c2ccccc2C2N=c3ccccc3=NC21 (stereo not given) | 20.6 µM | 15.2 µM | 1.35 | 0.74
5 | O=C1/C(=C/c2ccc(Cl)cc2)CNCC12C(c1ccc(Cl)cc1)C(Cc1c[nH]c3ccccc13)NC21c2ccccc2C2N=c3ccccc3=NC21 (stereo not given) | 18.8 µM | 12.5 µM | 1.5 | 0.67
6 | Cc1cccc(/C=C2\CNCC3(C2=O)C(c2cccc(C)c2)C(Cc2c[nH]c4ccccc24)NC32c3ccccc3C3N=c4ccccc4=NC32)c1 (stereo not given) | 15.2 µM | 6.84 µM | 2.22 | 0.45
7 | Cc1ccccc1/C=C1\CNCC2(C1=O)C(c1ccccc1C)C(Cc1c[nH]c3ccccc13)NC21c2ccccc2C2N=c3ccccc3=NC21 (stereo not given) | 14.7 µM | 5.8 µM | 2.54 | 0.39
8 | Cc1ccc(/C=C2\CNCC3(C2=O)C(c2ccc(C)cc2)C(Cc2c[nH]c4ccccc24)NC32c3ccccc3C3N=c4ccccc4=NC32)cc1 (stereo not given) | 12.4 µM | 3.22 µM | 3.85 | 0.26
9 | O=C1/C(=C/c2ccccc2)CNCC12C(c1ccccc1)C(Cc1c[nH]c3ccccc13)NC21c2ccccc2C2N=c3ccccc3=NC21 (stereo not given) | 14.2 µM | 7.35 µM | 1.93 | 0.52
10 | COc1ccc(/C=C2\CNCC3(C2=O)C(c2ccc(OC)cc2)C(Cc2c[nH]c4ccccc24)NC32c3ccccc3C3N=c4ccccc4=NC32)cc1 (stereo not given) | 23.2 µM | 7.2 µM | 3.22 | 0.31
